From patent publication US7253286B2, “Nitrogen-containing aromatic derivatives” (Eisai Co., Ltd, priority 2000, dated 2007) come the findings set out here.

The subject of the test is Human Umbilical Vein Endothelial Cells (HUVECs). The experiment in a line: Inhibition against sandwich tube formation by vascular endothelial cells in response to stimulation by VEGF. The class given is cell-based. The note with it: HUVEC in collagen gel sandwich, stimulation by VEGF (25 ng/ml VEGF and 10 ng/ml EGF), 4th day, total tube length, read-out: IC50 (concentration required for 50% inhibition of tube formation). The method in brief:
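HUVECs were sandwiched between collagen gel layers in serum-free medium with 25 ng/ml VEGF plus 10 ng/ml EGF, with test substance added above the gel at 37 °C. On day 4 tubes were MTT-stained and total tube length measured by image analysis. IC50 is the concentration halving tube length relative to no-compound wells.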
For the compound `N#CCCCOc1cc2nccc(Oc3ccc(NC(=O)Nc4ccc(F)cc4F)c(F)c3)c2cc1C#N` [Example 55, N-(4-(6-Cyano-7-(3-cyanopropoxy)-4-quinolyl)oxy-2-fluorophenyl)-N′-(2,4-difluorophenyl)urea], the IC50 was 35 nM.

With `COCCOc1cc2nccc(Oc3ccc(NC(=O)Nc4ccc(F)cc4)c(F)c3)c2cc1C#N` [Example 100, N-(4-(6-Cyano-7-(2-methoxyethoxy)-4-quinolyl)oxy-2-fluorophenyl)-N′-(4-fluorophenyl)urea], the IC50 amounted to 6.3 nM.

For `CCNC(=O)n1ccc2cc(Oc3ccnc4cc(OC)c(C(N)=O)cc34)ccc21` [Example 316, 6-Carbamoyl-4-(1-ethylcarbamoyl-1H-indol-5-yloxy)-7-methoxyquinoline], the IC50 was determined as 1 nM.

`NC(=O)c1cc2c(Oc3ccc(NC(=O)NC4CC4)c(F)c3)ccnc2cc1OCCCN1CCOCC1` [Example 374, 4-(4-(Cyclopropylaminocarbonyl)amino-3-fluorophenoxy)-7-(3-(4-morpholino)propoxy)-6-quinolinecarboxamide]: the IC50 was determined as 3 nM.

In the case of `COc1cc2nccc(Oc3ccc(NC(=O)NC4CC4)c(Cl)c3)c2cc1C(=O)NCCS(C)(=O)=O` [Example 404, N6-(2-(Methylsulfonyl)ethyl)-4-(3-chloro-4-(((cyclopropylamino)carbonyl)amino)phenoxy)-7-methoxy-6-quinolinecarboxamide], the IC50 was determined as 2.8 nM.
